Source: patent US20210179680A1, “POLYPEPTIDE, DERIVATIVES THEREOF, AND APPLICATION THEREOF IN PREPARATION OF DRUGS HAVING RESISTANCE TO PULMONARY FIBROSIS” (priority 2016, published 2021)
Bridge positions count the residues as written; N and C are the ends. Square brackets hold non-standard residues; d marks the D form. Peptide text beside a SMILES is read from it. S5 = C=CCCC[C@](C)(N)C(=O)O

Tests used:
TRB3 protein = target: T1, TRB3 protein (Homo sapiens, UniProt Q96RU7); assay: Surface plasmon resonance (Biacore T200) binding of polypeptides to TRB3 protein; settings: SPR, FIG. 4-1, 4-2 and Table 1
T1 construct: purchased RD
T1 sequence (Q96RU7 1-358): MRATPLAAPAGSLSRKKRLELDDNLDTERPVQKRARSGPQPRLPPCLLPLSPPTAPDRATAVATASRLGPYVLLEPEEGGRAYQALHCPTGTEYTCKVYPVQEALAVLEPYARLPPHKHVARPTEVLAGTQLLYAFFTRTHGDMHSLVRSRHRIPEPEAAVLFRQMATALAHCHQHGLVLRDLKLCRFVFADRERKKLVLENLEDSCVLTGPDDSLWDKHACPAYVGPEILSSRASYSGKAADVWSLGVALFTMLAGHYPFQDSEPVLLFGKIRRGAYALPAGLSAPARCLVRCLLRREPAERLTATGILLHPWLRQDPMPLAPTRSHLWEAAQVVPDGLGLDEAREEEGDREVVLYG
Procedure: The surface plasmon resonance experiment was carried out in a surface plasmon resonator Biacore T200, and the procedure was carried out in accordance with the instructions of the plasma resonator Biacore T200. Specific steps are as follows:
1. Purified TRB3 protein (purchased from RD) was coupled to a CMS chip (purchased from GE) by amidogen, and the unbound protein was eluted at a flow rate of 10 μL/min. The surface of the chip was equilibrated for 2 hours. Among them, the specific steps of amidogen coupling, elution and equilibration refer to the relevant instruction of GE's CMS chip.
2. 250 μL of the S1-S11 and MR2 polypeptide fragments prepared in Example 1 with different concentrations (800, 400, 200, 50, 12.5, 6.25, and 3.125 nM) were automatically injected, and the entire surface plasmon resonance experiment was carried out at 25° C. The buffer used was HBS-EP buffer [0.01 M HEPES, 0.15 M NaCl, 3 mM EDTA and 0.005% (w/w) surfactant TWEEN20]. Biacore T200's built-in analysis software was used to simulate the binding curves of different concentrations of peptides to TRB3.

[1] = test system: mice with bleomycin-induced pulmonary fibrosis; assay: Lung weight index in mice with pulmonary fibrosis; type: in vivo, C57BL/6 mice; settings: Table 3 groups, 2 mg/kg i.p.; after 28 days; lung weight (mg) divided by body weight (g)
Procedure: (§1) Male C57BL/6 mice were fasted overnight, then anesthetized with 45 mg/kg sodium pentobarbital by injection intraperitoneally (i.p.), and intratracheally injected with bleomycin at a dose of 3 U/kg. The specific operation steps are as follows: cut the neck skin of the mouse with as little trauma as possible, expose the trachea with the assistance of elbow ophthalmic forceps, puncture the trachea and inject about 50 μL of bleomycin into the trachea with a microsyringe, rotate the mouse quickly and stand it upright for 5 minutes in order to make bleomycin evenly enter the left and right lobe, thereby constructing an animal model. The whole operation was performed at a surgical table at about […]. Mice in the sham operation group were intratracheally injected with an equal amount of physiological saline for injection.
Pulmonary fibrosis model was prepared according to the method described in Example 2, and administered in groups according to Table 3. After 28 days, the lungs of the mice were finely stripped and weighed, and a lung weight index was obtained from dividing the lung weight (mg) by the body weight (g) of the mice. […] In FIG. 7, “##” represents that P value is less than 0.01 when the lung weight index of administration group was compared with that of the sham operation group; “*” represents that P value is less than 0.05 when the lung weight index of administration group was compared with that of the bleomycin group; “**” represents that P value is less than 0.01 when the lung weight index of administration group was compared with that of bleomycin group.
Pulmonary fibrosis models were made according to the method described in Example 2 and administered in groups according to Table 9. After 28 days, the lungs of the mice were finely stripped and weighed, and the lung weight (mg) was divided by the body weight (g) of the mice to obtain a lung weight index. […] In FIG. 13, “##” represents that P value is less than 0.01 when the lung weight index of the administration groups were compared with that of the sham operation group; “*” represents that P value is less than 0.05 and “**” represents that P value is less than 0.01 when the lung weight index of the administration groups were compared with bleomycin group.

[2] = test system: mice with bleomycin-induced pulmonary fibrosis; assay: Pulmonary function (Flexivent) in mice with pulmonary fibrosis; type: in vivo, C57BL/6 mice; settings: Table 3 groups, 2 mg/kg i.p.; for Dynamic compliance (mL/cmH2O) / Dynamic elasticity (cmH2O./mL) / Dynamic resistance (cmH2O · s/Ml) / Inspiratory capacity: 28th day after model construction; for pulmonary function of mice with pulmonary fibrosis (in words): FIG. 11
Procedure: as §1
(§2) Pulmonary function is a gold indicator for clinical detection of pulmonary fibrosis in patients. The decline of lung function is generally accompanied by an aggravation of fibrosis, while the improvement of lung function generally represents the recovery of lung tissue structure. Pulmonary fibrosis models were prepared according to the method described in Example 2 and administered in groups according to Table 3. On the 28th day after the construction of the animal model, the mice were anesthetized with sodium pentobarbital (45 mg/kg, i.p.). Lung function was tested by the Flexivent Small-animal respiratory mechanics and the testing methods were TLC and SnapShots (Testing method refers to Lv X, Wang X, Li K, et al. Rupatadine Protects against Pulmonary Fibrosis by Attenuating PAF-Mediated Senescence in Rodents [J]. PloS one, 2013, 8(7): e68631).
as §2, with “lung function also generally represents” for “lung function generally represents”, “to Table 9. 28 days later, the mice” for “to Table 3. On the 28th day after the construction of the animal model, the mice”, “Senescence in Rodents[J]. PloS one,” for “Senescence in Rodents [J]. PloS one,”

Row | SMILES | interaction with the TRB3 protein (in words) (TRB3 protein) | Lung weight index [1] | Dynamic compliance (mL/cmH2O) [2] | Dynamic elasticity (cmH2O./mL) [2] | Dynamic resistance (cmH2O · s/Ml) [2] | Inspiratory capacity [2] | pulmonary function of mice with pulmonary fibrosis (in words) [2]
1 | CSCC[C@H](NC(=O)[C@H](CC(C)C)NC(=O)[C@@H](N)Cc1c[nH]cn1)C(=O)N[C@@H](C)C(=O)N[C@@H](CS)C(=O)N[C@@H](Cc1ccccc1)C(=O)N[C@H](C(=O)N[C@@H](CS)C(=O)N[C@@H](C)C(=O)N[C@@]1(C)CCCC=CCCC[C@@](C)(C(=O)N[C@@H](CCCNC(=N)N)C(=O)O)NC(=O)[C@H](CCCCN)NC(=O)[C@H](CC(C)C)NC(=O)[C@H](CCCCN)NC1=O)[C@@H](C)O [S10, His-Leu-Met-Ala-Cys-Phe-Thr-Cys-Ala-S5-Lys-Leu-Lys-S5-Arg] (H-HLMACFTCA[S5]KLK[S5]R-OH; staple 10-14; N-terminus and C-terminus assumed) | interacted with the TRB3 protein | 8.8875 | 0.2333 mL/cmH2O | 49.5 cmH2O./mL | 1.367 cmH2O · s/Ml | 0.562 mL | improved
2 | CSCC[C@H](NC(=O)[C@H](CC(C)C)NC(=O)[C@@H](N)Cc1c[nH]cn1)C(=O)N[C@@H](C)C(=O)N[C@@H](CS)C(=O)N[C@@H](Cc1ccccc1)C(=O)N[C@H](C(=O)N[C@@H](CS)C(=O)N[C@@H](C)C(=O)N[C@@H](CCCCN)C(=O)N[C@@]1(C)CCCC=CCCC[C@@](C)(C(=O)O)NC(=O)[C@H](CCCCN)NC(=O)[C@H](CCCCN)NC(=O)[C@H](CC(C)C)NC1=O)[C@@H](C)O [S11, His-Leu-Met-Ala-Cys-Phe-Thr-Cys-Ala-Lys-S5-Leu-Lys-Lys-S5] (H-HLMACFTCAK[S5]LKK[S5]-OH; staple 11-15; N-terminus and C-terminus assumed) | interacted with the TRB3 protein | 9.2875 | 0.235 mL/cmH2O | 53 cmH2O./mL | 1.267 cmH2O · s/Ml | 0.658 mL | improved
